From patent US11944624B2, “Peptide and small molecule agonists of EphA and their uses” (CASE WESTERN RESERVE UNIVERSITY, priority 2017, dated 2024)
Entries after “also recorded” stand apart in the source; their conditions may differ.

What was measured:
ERK and Akt activities = ERK and Akt activities in LK133A-Vec cells (EphA2 knockout); assay type: cell-based, mice
Method: (§1) Cells were plated in 24-well dishes at a density of 100,000 cells/well and grown for 24 hours prior to stimulation with appropriate compounds and ephrins for the given amounts of time. Compounds were prepared in DMSO at 500 times the final concentrations and 0.2% DMSO was used as vehicle control. Following treatment, cells were lysed directly in SDS Gel Loading Buffer and immunoblotted as described previously. Immunoprecipitation and immunofluorescence staining was performed as described. For immunoprecipitation, 300,000 cells/well were plated in 6-well dishes and lysed in modified RIPA Buffer (20 mM Tris-HCl pH 7.4, 20 mM NaF, 150 mM NaCl, 10% glycerol, 0.1% SDS, 0.5% DCA, 2 mM EDTA, 1% Triton X-100) following treatment. Either 10 μg of ephrin-A1-Fc, or […] of EphA2 mouse monoclonal antibody (Clone D7, Millipore) were used, and mouse IgG was used as a negative control for EphA2 IP.
To address this question, we utilized an immortalized liver epithelial cell line, LK133A, isolated from a hepatoma induced by DEN in EphA2 knockout mice. Retroviral vector was used to restore EphA2 expression in these cells (LK133A-A2), and cells transduced with an empty vector were used as control (LK133AVec).

endogenous EphA2 = endogenous EphA2 (Homo sapiens, UniProt P29317); test: Activation of endogenous EphA2 in PC-3 cells (pEphA/B immunoblot); assay type: cell-based; parameters: host or cells: PC-3; conditions: 30 minutes
Method: as §1
(§2) To determine whether the EphA2 agonist activity of doxazosin is cell-context specific, we evaluated the effects of doxazosin on additional cell types. We first utilized HEK 293 cells overexpressing EphA2 (HEK 293-A2) that we described previously. […] Next we tested PC-3 cells that express high levels of endogenous EphA2 receptor. […] We next evaluated the time-course of activation in both MDA-231-A2 and HEK 293-A2 cells upon treatment with a single 50 μM dose of doxazosin.

EphA2 = EphA2 (Homo sapiens, UniProt P29317); test: EphA2 activation in HEK 293-A2 cells (pEphA/B immunoblot); assay type: cell-based; parameters: expressed in transfected cells
Method: as §1, §2

[1] = biological target: T1, rat α1a adrenergic receptor (Rattus norvegicus, UniProt P43140); test: Adrenoceptor binding, [3H]-prazosin competition; conditions: [3H]-prazosin 0.25 nM, triplicate, mean±SD; read-out: IC50, α-adrenoceptor binding
T1 construct: Eurofins Panlabs Taiwan, Ltd. (contract assay)
T1 sequence (P43140 1-466): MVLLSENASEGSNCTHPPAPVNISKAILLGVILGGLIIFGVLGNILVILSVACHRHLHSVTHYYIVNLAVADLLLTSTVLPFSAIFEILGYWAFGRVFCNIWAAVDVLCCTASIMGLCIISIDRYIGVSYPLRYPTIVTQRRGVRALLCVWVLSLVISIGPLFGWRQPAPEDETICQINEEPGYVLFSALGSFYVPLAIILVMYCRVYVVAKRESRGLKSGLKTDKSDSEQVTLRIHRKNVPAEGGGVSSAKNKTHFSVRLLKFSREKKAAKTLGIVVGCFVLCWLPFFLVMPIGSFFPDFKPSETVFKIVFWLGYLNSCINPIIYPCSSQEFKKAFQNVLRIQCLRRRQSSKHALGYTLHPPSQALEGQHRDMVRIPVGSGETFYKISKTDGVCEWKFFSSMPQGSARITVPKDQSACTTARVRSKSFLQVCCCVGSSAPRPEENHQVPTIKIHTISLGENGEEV
Method: Analysis of Doxazosin and analog binding to rat α1a adrenergic receptor was performed by Eurofins Panlabs Taiwan, Ltd. (Taiwan). [^3H]-prazosin at 0.25 nM was used as the radioligand. […] Non-specific binding was defined by use of 10 μM phentolamine. Incubations were terminated by vacuum filtration over 0.1% PEI pretreated glass fiber filters and filters were washed for 10 s with ice cold 0.1M NaCl and radioactivity retained on the filters was determined by liquid scintillation spectrometry. IC50 values were determined by a non-linear regression analysis using GraphPad Prism v.5 (GraphPad).

Sequence of EphA2 (P29317 24-976): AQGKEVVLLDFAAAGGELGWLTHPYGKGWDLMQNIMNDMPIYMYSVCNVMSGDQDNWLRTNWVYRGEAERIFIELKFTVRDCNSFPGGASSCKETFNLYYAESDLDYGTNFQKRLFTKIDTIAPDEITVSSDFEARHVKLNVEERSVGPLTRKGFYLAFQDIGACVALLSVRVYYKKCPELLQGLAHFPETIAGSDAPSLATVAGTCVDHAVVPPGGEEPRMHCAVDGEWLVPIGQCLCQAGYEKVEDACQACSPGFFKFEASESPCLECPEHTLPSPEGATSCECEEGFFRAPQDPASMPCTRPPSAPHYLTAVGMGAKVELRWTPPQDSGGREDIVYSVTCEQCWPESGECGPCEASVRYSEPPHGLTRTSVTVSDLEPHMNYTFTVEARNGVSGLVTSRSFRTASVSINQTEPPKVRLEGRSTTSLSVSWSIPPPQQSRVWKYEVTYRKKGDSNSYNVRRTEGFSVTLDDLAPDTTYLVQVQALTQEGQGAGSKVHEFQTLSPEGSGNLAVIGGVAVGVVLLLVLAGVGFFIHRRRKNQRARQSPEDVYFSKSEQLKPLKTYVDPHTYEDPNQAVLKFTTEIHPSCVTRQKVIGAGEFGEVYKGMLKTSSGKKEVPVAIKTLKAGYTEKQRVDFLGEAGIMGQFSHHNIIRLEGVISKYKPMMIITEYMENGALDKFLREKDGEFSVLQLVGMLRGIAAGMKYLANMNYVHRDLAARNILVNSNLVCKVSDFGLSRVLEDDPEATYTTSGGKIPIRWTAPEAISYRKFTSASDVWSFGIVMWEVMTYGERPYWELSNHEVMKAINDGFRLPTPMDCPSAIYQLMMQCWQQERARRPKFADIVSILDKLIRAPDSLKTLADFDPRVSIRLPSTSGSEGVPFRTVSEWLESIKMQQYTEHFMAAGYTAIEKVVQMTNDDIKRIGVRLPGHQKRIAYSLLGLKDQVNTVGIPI
Sequence of endogenous EphA2 (P29317 24-976): as above

COc1cc2nc(N3CCN(C(=O)C4COc5ccccc5O4)CC3)nc(N)c2cc1OC (stereo not drawn) [Doxazosin, 2-[4-(2,3-Dihydro-1,4-benzodioxine-2-carbonyl)piperazin-1-yl]-6,7-dimethoxyquinazolin-4-amine]
effect on ERK and Akt activities in absence of EphA2 (ERK and Akt activities): neither doxazosin nor ephrin-A1-Fc was able to inhibit ERK and Akt activities; also recorded: notable increase in ERK and Akt activation
concentration at which EphA2 activation becomes evident (endogenous EphA2): 50 µM
concentration at which EphA2 activation starts (EphA2; HEK 293-A2 cells, 30 minutes): 25 µM
time at which EphA2 activation becomes evident (EphA2; HEK 293-A2 cells, single 50 μM dose): 10 min
EphA2 kinase activation (EphA2; HEK 293 overexpressing EphA2, 60 minutes): activated both EphA2 and EphA4 kinases following a similar dose-response relationship
IC50 [1]: 0.74 ± 0.3 nM
